Measured values from patent US11297861B2, “Sweet protein from truffle” (MycoTechnology, Inc., priority 2020, dated 2022).

System: sweet taste
Test: CATA time intensity of the sweet sensation, trained panel
Assay type: in vivo, human
Conditions: 10% sucrose in water
Method: Evaluation of thaumatin, sucrose, and SEQ ID NO:21 was carried out using a CATA (click all that apply) time intensity of the sweet sensation of named analytes in water at 0.045 mg/ml for proteins and 10% sucrose. Methodology: Time Intensity Technique; Data collection software: EyeQuestion, responses recorded every 2.57 seconds; Scaling Method: a 15-point sweet scale, e.g. score 5=5% sucrose, score 10=10% sucrose; Evaluation Protocol: small volume sip, tilt and spit test. There were 3-6 panelists and 2 replicates. All samples were blinded and presented with randomized 3-digit codes. Training Strategies: An intense training on sweet scale over 6 weeks on 15-point sweet scale to confidently assign sweet values. Due to unique sweet behavioral patterns, it is necessary to train time intensity principles over 3 weeks. Samples were tasted with a stopwatch to note times and help reach a consensus. # of Panelists: 3-6, # of replications: 2. All samples were blinded and presented with randomized 3-digit codes. Statistical analysis: due to the small # of panelists, a statistical analysis cannot be performed.

SMILES: OC[C@H]1O[C@@](CO)(O[C@H]2O[C@H](CO)[C@@H](O)[C@H](O)[C@H]2O)[C@@H](O)[C@@H]1O [SUC, sucrose]
- time to threshold sweetness (Intensity <1): 162 s
